Assays:
Homo sapiens = organism: Homo sapiens; assay: Selectivity ratio of IC50 for human CYP11B1 to IC50 for human CYP11B2
[1] = target: T1, Cytochrome P450 11B2, mitochondrial (Homo sapiens, UniProt P19099)
T1 sequence (P19099 whole entry): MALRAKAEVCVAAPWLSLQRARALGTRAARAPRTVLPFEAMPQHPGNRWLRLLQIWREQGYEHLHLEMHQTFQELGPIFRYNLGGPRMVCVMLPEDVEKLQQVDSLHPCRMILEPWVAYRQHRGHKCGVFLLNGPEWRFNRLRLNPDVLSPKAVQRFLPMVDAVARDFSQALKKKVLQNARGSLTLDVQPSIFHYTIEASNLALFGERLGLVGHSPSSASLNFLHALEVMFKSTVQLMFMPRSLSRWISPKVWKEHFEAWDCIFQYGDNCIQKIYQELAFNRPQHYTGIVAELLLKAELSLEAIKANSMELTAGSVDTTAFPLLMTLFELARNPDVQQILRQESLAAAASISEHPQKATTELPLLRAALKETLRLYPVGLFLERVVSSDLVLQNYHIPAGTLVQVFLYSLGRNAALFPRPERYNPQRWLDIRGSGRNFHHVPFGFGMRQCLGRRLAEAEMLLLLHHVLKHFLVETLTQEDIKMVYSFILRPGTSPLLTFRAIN

[2] = target: T2, Cytochrome P450 11B1, mitochondrial (Homo sapiens, UniProt P15538)
T2 sequence (P15538 whole entry): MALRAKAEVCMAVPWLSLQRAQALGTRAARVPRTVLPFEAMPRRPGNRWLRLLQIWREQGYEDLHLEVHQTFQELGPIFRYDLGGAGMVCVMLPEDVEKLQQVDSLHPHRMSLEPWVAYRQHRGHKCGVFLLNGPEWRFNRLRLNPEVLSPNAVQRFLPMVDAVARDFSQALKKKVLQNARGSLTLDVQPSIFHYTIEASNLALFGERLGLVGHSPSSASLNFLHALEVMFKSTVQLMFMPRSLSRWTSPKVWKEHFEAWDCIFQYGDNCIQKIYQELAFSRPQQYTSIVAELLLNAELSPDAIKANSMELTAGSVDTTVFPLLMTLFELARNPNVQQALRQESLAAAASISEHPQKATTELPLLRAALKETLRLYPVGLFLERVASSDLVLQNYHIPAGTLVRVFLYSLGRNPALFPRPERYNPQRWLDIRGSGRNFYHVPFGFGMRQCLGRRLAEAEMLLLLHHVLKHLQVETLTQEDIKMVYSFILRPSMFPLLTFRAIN

CYP1A2 = target: T3, CYP1A2 (Homo sapiens, UniProt P05177); assay: Inhibition of human recombinant CYP1A2 expressed in insect microsomes at 2 uM; assay type: ADME, Microsome
T3 sequence (P05177 whole entry): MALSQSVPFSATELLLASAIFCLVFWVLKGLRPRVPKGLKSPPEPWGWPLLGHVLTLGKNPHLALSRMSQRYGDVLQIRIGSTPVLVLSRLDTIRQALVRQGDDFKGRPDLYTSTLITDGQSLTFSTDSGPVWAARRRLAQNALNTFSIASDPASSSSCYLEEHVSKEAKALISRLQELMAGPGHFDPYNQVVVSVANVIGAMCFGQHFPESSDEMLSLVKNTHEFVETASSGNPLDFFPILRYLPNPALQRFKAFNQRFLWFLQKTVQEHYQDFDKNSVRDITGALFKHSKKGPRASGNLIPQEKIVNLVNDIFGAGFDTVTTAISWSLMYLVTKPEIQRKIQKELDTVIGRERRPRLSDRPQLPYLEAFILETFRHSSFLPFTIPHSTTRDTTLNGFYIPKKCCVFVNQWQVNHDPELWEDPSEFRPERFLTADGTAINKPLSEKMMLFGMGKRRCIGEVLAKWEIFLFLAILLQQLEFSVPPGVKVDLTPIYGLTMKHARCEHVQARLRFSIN

Cytochrome P450 2C9 = Cytochrome P450 2C9 (Homo sapiens, UniProt P11712); assay: Inhibition of human recombinant CYP2C9 expressed in insect microsomes; assay type: ADME, Microsome
Cytochrome P450 2B6 = target: T4, Cytochrome P450 2B6 (Homo sapiens, UniProt P20813); assay: Inhibition of human recombinant CYP2B6 expressed in insect microsomes; assay type: ADME, Microsome
T4 sequence (P20813 whole entry): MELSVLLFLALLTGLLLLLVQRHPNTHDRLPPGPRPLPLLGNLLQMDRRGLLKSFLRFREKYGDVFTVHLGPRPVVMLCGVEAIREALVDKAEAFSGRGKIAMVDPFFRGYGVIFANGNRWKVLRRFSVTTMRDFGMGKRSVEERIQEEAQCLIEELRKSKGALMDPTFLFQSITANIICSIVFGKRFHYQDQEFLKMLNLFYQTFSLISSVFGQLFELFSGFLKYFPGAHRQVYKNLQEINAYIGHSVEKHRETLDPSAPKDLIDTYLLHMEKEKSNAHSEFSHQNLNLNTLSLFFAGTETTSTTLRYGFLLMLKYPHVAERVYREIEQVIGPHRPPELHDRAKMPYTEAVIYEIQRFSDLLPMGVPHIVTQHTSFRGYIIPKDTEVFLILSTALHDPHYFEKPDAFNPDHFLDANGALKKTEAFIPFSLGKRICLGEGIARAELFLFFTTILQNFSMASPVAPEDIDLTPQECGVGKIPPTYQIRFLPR

Cytochrome P450 1A2 = target: T5, Cytochrome P450 1A2 (Homo sapiens, UniProt P05177)
T5 sequence (P05177 whole entry): T3 sequence (P05177 whole entry)

Cytochrome P450 3A4 = Cytochrome P450 3A4 (Homo sapiens, UniProt P08684); assay: Inhibition of human recombinant CYP3A4 expressed in insect microsomes; assay type: ADME, Microsome
CYP17 = target: T6, CYP17 (Homo sapiens, UniProt P05093); assay: Inhibition of human recombinant CYP17 expressed in Escherichia coli at 2 uM
T6 sequence (P05093 whole entry): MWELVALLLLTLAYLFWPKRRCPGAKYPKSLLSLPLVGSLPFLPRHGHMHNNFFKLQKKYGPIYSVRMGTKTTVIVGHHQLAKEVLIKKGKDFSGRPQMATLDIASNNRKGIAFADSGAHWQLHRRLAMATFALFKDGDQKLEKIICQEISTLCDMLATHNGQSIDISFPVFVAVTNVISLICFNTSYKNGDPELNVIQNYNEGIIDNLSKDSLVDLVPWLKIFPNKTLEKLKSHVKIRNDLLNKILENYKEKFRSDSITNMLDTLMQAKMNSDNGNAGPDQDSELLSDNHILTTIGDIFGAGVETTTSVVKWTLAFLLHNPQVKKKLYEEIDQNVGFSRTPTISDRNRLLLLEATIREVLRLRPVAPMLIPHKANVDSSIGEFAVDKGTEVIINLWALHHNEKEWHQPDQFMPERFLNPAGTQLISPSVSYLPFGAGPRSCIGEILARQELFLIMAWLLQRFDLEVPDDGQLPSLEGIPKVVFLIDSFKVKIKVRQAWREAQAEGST

CYP19 (aromatase) = target: T7, CYP19 (aromatase) (Homo sapiens, UniProt P11511); assay: Inhibition of human placental CYP19 at 500 nM
T7 sequence (P11511 whole entry): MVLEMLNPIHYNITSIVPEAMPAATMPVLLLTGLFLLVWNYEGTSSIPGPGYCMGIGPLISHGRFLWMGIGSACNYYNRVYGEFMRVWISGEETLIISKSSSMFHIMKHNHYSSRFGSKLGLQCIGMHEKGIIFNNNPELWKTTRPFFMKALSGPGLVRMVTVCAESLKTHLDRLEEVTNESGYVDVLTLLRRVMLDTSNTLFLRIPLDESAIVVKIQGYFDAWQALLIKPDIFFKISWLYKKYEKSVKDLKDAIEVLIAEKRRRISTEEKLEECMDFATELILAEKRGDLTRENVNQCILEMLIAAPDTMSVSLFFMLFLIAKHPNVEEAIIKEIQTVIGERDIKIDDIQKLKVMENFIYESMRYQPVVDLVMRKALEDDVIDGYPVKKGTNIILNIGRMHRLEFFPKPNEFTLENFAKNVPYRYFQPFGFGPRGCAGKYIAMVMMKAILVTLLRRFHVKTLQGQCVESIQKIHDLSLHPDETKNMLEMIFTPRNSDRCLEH

Cytochrome P450 2D6 = Cytochrome P450 2D6 (Homo sapiens, UniProt P10635); assay: Inhibition of human recombinant CYP2D6 expressed in insect microsomes; assay type: ADME, Microsome
Cytochrome P450 2C19 = Cytochrome P450 2C19 (Homo sapiens, UniProt P33261); assay: Inhibition of human recombinant CYP2C19 expressed in insect microsomes; assay type: ADME, Microsome
[3] = Cmax in Wistar rat at 5 mg/kg, po; assay type: ADME, organism-based; set-up: dose 5 mg/kg, route oral; conditions: in vivo

Chain of Cytochrome P450 3A4 (P08684 whole entry): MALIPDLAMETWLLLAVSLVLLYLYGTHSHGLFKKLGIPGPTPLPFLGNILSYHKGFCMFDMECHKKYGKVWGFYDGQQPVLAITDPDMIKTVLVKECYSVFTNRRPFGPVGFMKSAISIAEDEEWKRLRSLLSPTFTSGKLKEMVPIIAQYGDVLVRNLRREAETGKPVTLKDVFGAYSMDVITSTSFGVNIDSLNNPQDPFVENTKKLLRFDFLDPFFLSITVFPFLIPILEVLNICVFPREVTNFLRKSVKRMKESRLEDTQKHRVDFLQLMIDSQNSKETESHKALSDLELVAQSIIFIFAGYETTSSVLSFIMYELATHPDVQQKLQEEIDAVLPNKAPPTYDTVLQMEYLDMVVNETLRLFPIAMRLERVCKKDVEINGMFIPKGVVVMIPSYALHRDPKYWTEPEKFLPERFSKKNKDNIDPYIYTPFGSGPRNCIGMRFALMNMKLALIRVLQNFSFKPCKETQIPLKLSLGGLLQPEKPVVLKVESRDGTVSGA
Chain of Cytochrome P450 2C19 (P33261 whole entry): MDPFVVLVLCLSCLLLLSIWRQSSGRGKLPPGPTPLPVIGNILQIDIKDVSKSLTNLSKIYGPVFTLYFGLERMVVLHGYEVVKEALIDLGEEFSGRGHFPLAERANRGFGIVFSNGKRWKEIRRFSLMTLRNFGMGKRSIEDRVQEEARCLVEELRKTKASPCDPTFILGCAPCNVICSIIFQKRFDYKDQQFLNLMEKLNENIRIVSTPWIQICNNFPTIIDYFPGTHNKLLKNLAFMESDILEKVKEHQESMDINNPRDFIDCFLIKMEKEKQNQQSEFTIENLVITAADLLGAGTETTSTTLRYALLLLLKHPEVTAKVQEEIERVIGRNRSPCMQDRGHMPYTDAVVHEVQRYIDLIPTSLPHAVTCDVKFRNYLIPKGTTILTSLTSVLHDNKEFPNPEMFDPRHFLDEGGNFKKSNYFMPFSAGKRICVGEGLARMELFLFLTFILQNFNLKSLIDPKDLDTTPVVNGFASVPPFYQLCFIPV
Chain of Cytochrome P450 2D6 (P10635 whole entry): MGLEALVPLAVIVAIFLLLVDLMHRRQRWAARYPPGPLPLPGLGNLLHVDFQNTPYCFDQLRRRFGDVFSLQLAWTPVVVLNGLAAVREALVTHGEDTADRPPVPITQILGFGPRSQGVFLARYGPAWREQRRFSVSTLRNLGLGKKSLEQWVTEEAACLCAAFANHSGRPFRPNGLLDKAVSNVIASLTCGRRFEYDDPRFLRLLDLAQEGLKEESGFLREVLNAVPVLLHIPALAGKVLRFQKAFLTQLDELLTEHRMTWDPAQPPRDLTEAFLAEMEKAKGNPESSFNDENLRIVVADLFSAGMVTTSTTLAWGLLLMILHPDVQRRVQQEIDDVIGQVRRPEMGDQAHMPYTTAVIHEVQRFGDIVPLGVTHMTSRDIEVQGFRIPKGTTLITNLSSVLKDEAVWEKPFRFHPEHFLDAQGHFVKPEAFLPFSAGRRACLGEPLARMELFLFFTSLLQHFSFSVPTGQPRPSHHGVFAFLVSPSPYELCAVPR
Chain of Cytochrome P450 2C9 (P11712 whole entry): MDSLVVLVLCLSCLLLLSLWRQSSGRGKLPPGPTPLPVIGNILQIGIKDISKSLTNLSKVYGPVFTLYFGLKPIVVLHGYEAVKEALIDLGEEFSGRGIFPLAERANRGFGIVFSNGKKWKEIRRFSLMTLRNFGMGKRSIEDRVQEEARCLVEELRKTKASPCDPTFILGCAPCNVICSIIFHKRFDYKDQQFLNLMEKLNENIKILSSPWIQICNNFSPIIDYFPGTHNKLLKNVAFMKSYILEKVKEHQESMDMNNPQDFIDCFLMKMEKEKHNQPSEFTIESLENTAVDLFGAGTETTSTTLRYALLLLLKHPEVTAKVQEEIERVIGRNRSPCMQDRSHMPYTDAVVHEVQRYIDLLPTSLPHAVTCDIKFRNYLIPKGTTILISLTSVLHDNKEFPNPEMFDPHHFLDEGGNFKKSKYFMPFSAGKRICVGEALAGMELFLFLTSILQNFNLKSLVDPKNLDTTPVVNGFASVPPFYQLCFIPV

Row | Ratio IC50 (Homo sapiens) | IC50 [1] [nM] | IC50 [2] [nM] | inhibition at 2 µM (CYP1A2) [%] | Structure (SMILES) | further results
1 | 150 | 7 | 1050 | 93 | COc1ccc2cc(-c3cccnc3)c(C)cc2c1 | –
2 | 128 | 0.5 | 64 | 6 | COc1ccc2c(c1)CC(C)C(c1cncc3ccccc13)=C2 (stereo not given) | –
3 | – | – | – | 98 | COc1ccc2c(c1)CCC(c1cccnc1)=C2 | –
4 | 73 | 5.1 | 373 | 85 | CCOc1cncc(-c2ccc3cc(OC)ccc3c2)c1 | –
5 | 80 | 22 | 1760 | 92 | COc1ccc2cc(-c3cnccc3CO)ccc2c1 | –
6 | 155 | 0.2 | 31 | 83 | COCc1cncc(-c2ccc3cc(OC)ccc3c2)c1 | –
7 | 57 | 4.2 | 238 | 91 | COc1cncc(-c2ccc3cc(OC)ccc3c2)c1 | IC50 (Cytochrome P450 2C9): 1890 nM; IC50 (Cytochrome P450 2B6): > 25000 nM; IC50 (Cytochrome P450 1A2): 83 nM; IC50 (Cytochrome P450 3A4): 1910 nM; inhibition at 2 µM (CYP17): 41%; inhibition at 0.5 µM (CYP19 (aromatase)): 14%; IC50 (Cytochrome P450 2D6): > 25000 nM; IC50 (Cytochrome P450 2C19): > 25000 nM
8 | 442 | 94 | 41600 | – | COc1ccc2cc(-c3cncc(C(N)=O)c3)ccc2c1 | –
9 | 198 | 0.5 | 99 | 78 | COc1ccc2cc(-c3cncc(C(C)O)c3)ccc2c1 (stereo not given) | –
10 | 79 | 3.3 | – | 73 | COc1ccc2c(c1)CC(C)C(c1cccnc1)=C2 (stereo not given) | –
11 | 29 | 6.9 | 199 | – | COC(=O)Cc1cncc(-c2ccc3cc(OC)ccc3c2)c1 | –
12 | 95 | 94 | 8920 | 93 | COc1ccc2cc(-c3cncc(O)c3)ccc2c1 | –
13 | 32 | 4.8 | 151 | – | COc1ccc2cc(-c3cncc(-c4ccccc4)c3)ccc2c1 | –
14 | 87 | 0.6 | 52 | 86 | Cc1ccncc1-c1ccc2cc(C#N)ccc2c1 | –
15 | 198 | 2.2 | 435 | 97 | COCc1ccncc1-c1ccc2cc(OC)ccc2c1 | –
16 | 68 | 9.1 | 614 | 93 | COc1ccc2cc(-c3cncc(CO)c3)ccc2c1 | –
17 | 50 | 0.2 | 10 | – | COc1ccc2cc(-c3cncc(C(C)OC)c3)ccc2c1 (stereo not given) | –
18 | 19 | 0.8 | 15 | – | COC(=O)c1cncc(-c2ccc3cc(OC)ccc3c2)c1 | –
19 | 31 | 1220 | 37800 | – | COc1ccc2cc(-c3cncc(CC(=O)O)c3)ccc2c1 | –
20 | 83 | 1.2 | 100 | 18 | COc1cncc(C2=Cc3ccc(OC)cc3CC2C)c1 (stereo not given) | –
21 | – | – | – | 55 | Cc1nc2c([nH]1)c(=O)n(C)c(=O)n2Cc1ccco1 [FURAFYLLINE] | –
22 | 143 | 0.8 | 114 | 98 | COc1ccc2cc(-c3cnccc3C)ccc2c1 | –
23 | 103 | 4.5 | 461 | 91 | N#Cc1ccc2c(c1)CCC(c1cccnc1)=C2 | –
24 | 117 | 13 | 1520 | 58 | COc1ccc2cc(-c3cnccc3N)ccc2c1 | IC50 (Cytochrome P450 2C9): 49000 nM; IC50 (Cytochrome P450 2B6): > 50000 nM; IC50 (Cytochrome P450 1A2): 1420 nM; IC50 (Cytochrome P450 3A4): 21100 nM; inhibition at 2 µM (CYP17): 42%; inhibition at 0.5 µM (CYP19 (aromatase)): 47%; IC50 (Cytochrome P450 2D6): 11100 nM; Cmax [3]: < 1.5 ng/mL; IC50 (Cytochrome P450 2C19): 45800 nM
25 | 121 | 2.1 | 255 | 80 | COc1ccc2cc(-c3cncc(C(C)=O)c3)ccc2c1 | IC50 (Cytochrome P450 2C9): > 200000 nM; IC50 (Cytochrome P450 2B6): > 50000 nM; IC50 (Cytochrome P450 1A2): 488 nM; IC50 (Cytochrome P450 3A4): 9070 nM; inhibition at 2 µM (CYP17): 36%; inhibition at 0.5 µM (CYP19 (aromatase)): < 5%; IC50 (Cytochrome P450 2D6): > 200000 nM; IC50 (Cytochrome P450 2C19): > 200000 nM
26 | 272 | 3.1 | 843 | 45 | COc1ccc2cc(-c3cncc4ccccc34)c(C)cc2c1 | –
27 | 230 | 3.8 | 875 | 91 | COc1cncc(-c2cc3ccc(OC)cc3cc2C)c1 | –

From ChEMBL document CHEMBL1156596, “Overcoming undesirable CYP1A2 inhibition of pyridylnaphthalene-type aldosterone synthase inhibitors: influence of heteroaryl derivatization on potency and selectivity” (J Med Chem, 2008)
